# Laboratory results reported in publication PMC12856970 (Clinical Pharmacology in Drug Development, 2025).
# “Also recorded” adds a separate entry of the source. Like-named read-outs stand apart in the source and are kept apart here.
# Experiments:
# [1] = design: method as in PMID 30580575; conditions: monotherapies; cited from earlier work
# [2] = Phase 1 DDI study: asciminib plasma trough concentration (Ctrough); assay type: in vivo, human (healthy participants); conditions: asciminib 80 mg QD (i.e. on day 8)
# [3] = Phase 1 DDI study: safety and tolerability (AEs, ECG); assay type: in vivo, human (healthy participants); conditions: asciminib 80 mg QD multiple doses alone or with atorvastatin 20 mg
# [4] = cited from earlier work
# [5] = tested on: OATP1B1; conditions: in vitro; cited from earlier work
# [6] = tested on: OATP1B3; conditions: in vitro; cited from earlier work
# [7] = tested on: P‐gp; conditions: in vitro; cited from earlier work
# [8] = tested on: BCRP; conditions: in vitro; cited from earlier work
# [9] = tested on: OATP1B; design: method as in data on file; conditions: single asciminib dose of 200 mg; ref data on file; cited from earlier work
# [10] = tested on: CYP3A4; conditions: midazolam single dose co-administered with asciminib 40 mg BID at steady state vs alone; cited from earlier work
# [11] = tested on: CYP3A4; conditions: midazolam with asciminib 200 mg BID; cited from earlier work
# [12] = Phase 1 DDI study: plasma PK of atorvastatin and its metabolites after atorvastatin alone or with steady-state asciminib (LC-MS/MS, non-compartmental); conditions: for AUCinf, Gmean (GCV%) / AUCinf, Mean (SD) / AUCinf, Median (min, max) / AUClast, Gmean (GCV%) / AUClast, Mean (SD) / AUClast, Median (min, max) / Cmax, Gmean (GCV%) / Cmax, Mean (SD) / Cmax, Median (min, max) / T1/2, Gmean (GCV%) / T1/2, Mean (SD) / T1/2, Median (min, max) / Tmax, Median (min, max): plasma; for AUCinf, Adjusted Gmean / AUClast, Adjusted Gmean / Cmax, Adjusted Gmean: linear mixed-effects model, back-transformed; for AUCinf Gmean ratio / AUClast Gmean ratio / Cmax Gmean ratio: atorvastatin + asciminib/atorvastatin; for Effect of asciminib on Cmax, AUClast and AUCinf (in words): atorvastatin + steady-state asciminib versus atorvastatin alone
# [13] = tested on: OATP; design: method as in PMID 27317801; conditions: after a single dose of rifampicin, healthy participants; cited from earlier work
# [14] = tested on: OATP1B; assay: Phase 1 DDI study: plasma CP-1 AUC0-24 as endogenous biomarker of OATP1B, without or with steady-state asciminib; conditions: for AUC0‐24, Adjusted Gmean: linear mixed-effects model
# [15] = steady state, 40 mg BID regimen
# [16] = atorvastatin 20 mg single dose + asciminib 80 mg QD at steady state (day 9)
# [17] = atorvastatin 20 mg single oral dose alone (day 1)
# [18] = atorvastatin + asciminib 80 mg QD steady state
# [19] = atorvastatin + asciminib at steady state
compound,measurement,setting,value
CC(C)c1c(C(=O)Nc2ccccc2)c(-c2ccccc2)c(-c2ccc(F)cc2)n1CC[C@@H](O)C[C@@H](O)CC(=O)O [Atorvastatin],Rate of hospitalization due to rhabdomyolysis,[1],"0.44 per 10,000 patient‐years"
"O=C(Nc1ccc(OC(F)(F)Cl)cc1)c1cnc(N2CC[C@@H](O)C2)c(-c2ccn[nH]2)c1 [asciminib, Asciminib]",Time of dosing until steady state was attained,[2],3 days
same,Tolerability (in words),[3],well tolerated
same,Time of dosing to reach steady-state levels,[4],≤ 3 days
same,"AUC0‐12, Gmean",[4]; [15],5262 ng x h/mL
same,"Cmax, Gmean",[4]; [15],793 ng/mL
same,"Cmax, Gmean","[4]; steady state, 80 mg QD regimen",1781 ng/mL
same,Inhibition of OATP1B1 (in words),[5],could inhibit; also recorded: can inhibit
same,Inhibition of OATP1B3 (in words),[6],could inhibit; also recorded: can inhibit
same,Inhibition of P‐gp (in words),[7],could inhibit; also recorded: can inhibit
same,Inhibition of BCRP (in words),[8],could inhibit; also recorded: can inhibit
same,DDI effect on CP‐1 (in words),[9],no DDI effect
Cc1ncc2n1-c1ccc(Cl)cc1C(c1ccccc1F)=NC2 [midazolam],Increase in AUCinf,[10],28%
same,Increase in AUClast,[10],27%
same,Increase in Cmax,[10],11%
same,Increase in AUCinf (PBPK prediction),[11],88%
same,Increase in Cmax (PBPK prediction),[11],58%
"CC(C)c1c(C(=O)Nc2ccccc2O)c(-c2ccccc2)c(-c2ccc(F)cc2)n1CC[C@@H](O)C[C@@H](O)CC(=O)O [o‐Hydroxy‐atorvastatin, o‐hydroxy‐atorvastatin]","AUCinf, Gmean (GCV%)",[12]; [16],41.7 (34.9) ng x h/mL
same,"AUCinf, Mean (SD)",[12]; [16],44.1 (15.5) ng x h/mL
same,"AUCinf, Median (min, max)",[12]; [16],"42.8 (23.6, 81.7) ng x h/mL"
same,"AUClast, Gmean (GCV%)",[12]; [16],39.2 (36.8) ng x h/mL
same,"AUClast, Mean (SD)",[12]; [16],41.7 (15.4) ng x h/mL
same,"AUClast, Median (min, max)",[12]; [16],"40.1 (21.4, 79.2) ng x h/mL"
same,"Cmax, Gmean (GCV%)",[12]; [16],3.98 (45.4) ng/mL
same,"Cmax, Mean (SD)",[12]; [16],4.27 (2.11) ng/mL
same,"Cmax, Median (min, max)",[12]; [16],"3.88 (1.56, 11.3) ng/mL"
same,"T1/2, Gmean (GCV%)",[12]; [16],11.7 (28.4) h
same,"T1/2, Mean (SD)",[12]; [16],12.2 (3.43) h
same,"T1/2, Median (min, max)",[12]; [16],"12.2 (7.33, 21.2) h"
same,"Tmax, Median (min, max)",[12]; [16],"1.50 (0.50, 6.00) h"
same,"AUCinf, Gmean (GCV%)",[12]; [17],41.2 (34.7) ng x h/mL
same,"AUCinf, Mean (SD)",[12]; [17],43.4 (14.3) ng x h/mL
same,"AUCinf, Median (min, max)",[12]; [17],"44.1 (23.1, 77.7) ng x h/mL"
same,"AUClast, Gmean (GCV%)",[12]; [17],37.0 (42.2) ng x h/mL
same,"AUClast, Mean (SD)",[12]; [17],39.8 (15.0) ng x h/mL
same,"AUClast, Median (min, max)",[12]; [17],"41.6 (15.2, 75.8) ng x h/mL"
same,"Cmax, Gmean (GCV%)",[12]; [17],3.66 (56.9) ng/mL
same,"Cmax, Mean (SD)",[12]; [17],4.14 (1.98) ng/mL
same,"Cmax, Median (min, max)",[12]; [17],"4.04 (1.42, 8.11) ng/mL"
same,"T1/2, Gmean (GCV%)",[12]; [17],9.64 (28.0) h
same,"T1/2, Mean (SD)",[12]; [17],10.0 (2.95) h
same,"T1/2, Median (min, max)",[12]; [17],"9.67 (5.12, 19.9) h"
same,"Tmax, Median (min, max)",[12]; [17],"2.00 (0.50, 5.00) h"
same,"AUCinf, Adjusted Gmean",[12]; [18],41.7 ng x h/mL
same,"AUClast, Adjusted Gmean",[12]; [18],39.4 ng x h/mL
same,"Cmax, Adjusted Gmean",[12]; [18],3.95 ng/mL
same,Time post-dose at which mean Cmax was observed (mean concentration-time profile),[12]; [19],2 h
same,AUCinf Gmean ratio,[12],1.02
same,AUClast Gmean ratio,[12],1.07
same,Cmax Gmean ratio,[12],1.08
same,"Effect of asciminib on Cmax, AUClast and AUCinf (in words)",[12],did not affect; also recorded: comparable between treatments; also recorded: negligible
same,Time post-dose at which mean Cmax was observed (mean concentration-time profile),[12]; atorvastatin alone,2 h
same,"AUCinf, Adjusted Gmean",[12]; atorvastatin alone,40.7 ng x h/mL
same,"AUClast, Adjusted Gmean",[12]; atorvastatin alone,37.0 ng x h/mL
same,"Cmax, Adjusted Gmean",[12]; atorvastatin alone,3.66 ng/mL
CC[C@H](C)C(=O)O[C@H]1C[C@H](O)C=C2C=C[C@H](C)[C@H](CC[C@@H](O)C[C@@H](O)CC(=O)O)[C@H]21 [pravastatin],Rate of hospitalization due to rhabdomyolysis,[1],"0.44 per 10,000 patient‐years"
"CC(C)c1c(C(=O)Nc2ccc(O)cc2)c(-c2ccccc2)c(-c2ccc(F)cc2)n1CC[C@@H](O)C[C@@H](O)CC(=O)O [p‐Hydroxy‐atorvastatin, p‐hydroxy‐atorvastatin]","AUCinf, Gmean (GCV%)",[12]; [16],6.2 (95.2) ng x h/mL
same,"AUCinf, Mean (SD)",[12]; [16],7.67 (4.91) ng x h/mL
same,"AUCinf, Median (min, max)",[12]; [16],"6.63 (1.50, 15.7) ng x h/mL"
same,"AUClast, Gmean (GCV%)",[12]; [16],2.9 (87.7) ng x h/mL
same,"AUClast, Mean (SD)",[12]; [16],3.83 (3.28) ng x h/mL
same,"AUClast, Median (min, max)",[12]; [16],"2.99 (0.717, 13.6) ng x h/mL"
same,"Cmax, Gmean (GCV%)",[12]; [16],0.16 (48.0) ng/mL
same,"Cmax, Mean (SD)",[12]; [16],0.171 (0.0880) ng/mL
same,"Cmax, Median (min, max)",[12]; [16],"0.145 (0.0699, 0.425) ng/mL"
same,"T1/2, Gmean (GCV%)",[12]; [16],22.8 (58.5) h
same,"T1/2, Mean (SD)",[12]; [16],25.3 (10.9) h
same,"T1/2, Median (min, max)",[12]; [16],"26.0 (8.45, 40.9) h"
same,"Tmax, Median (min, max)",[12]; [16],"10.00 (1.00, 12.00) h"
same,"Tmax, Median (min, max)","[12]; atorvastatin 20 mg single dose + asciminib 80 mg QD at steady state (day 9), listed as p‐hydroxy‐atorvastatin",approximately 10 h
same,"AUCinf, Gmean (GCV%)",[12]; [17],7.4 (53.2) ng x h/mL
same,"AUCinf, Mean (SD)",[12]; [17],8.16 (4.48) ng x h/mL
same,"AUCinf, Median (min, max)",[12]; [17],"6.60 (4.86, 14.6) ng x h/mL"
same,"AUClast, Gmean (GCV%)",[12]; [17],3.1 (69.8) ng x h/mL
same,"AUClast, Mean (SD)",[12]; [17],3.73 (2.75) ng x h/mL
same,"AUClast, Median (min, max)",[12]; [17],"2.56 (0.964, 12.5) ng x h/mL"
same,"Cmax, Gmean (GCV%)",[12]; [17],0.17 (53.8) ng/mL
same,"Cmax, Mean (SD)",[12]; [17],0.189 (0.112) ng/mL
same,"Cmax, Median (min, max)",[12]; [17],"0.144 (0.0793, 0.468) ng/mL"
same,"T1/2, Gmean (GCV%)",[12]; [17],30.4 (24.6) h
same,"T1/2, Mean (SD)",[12]; [17],31.1 (7.50) h
same,"T1/2, Median (min, max)",[12]; [17],"30.4 (24.3, 39.3) h"
same,"Tmax, Median (min, max)",[12]; [17],"10.00 (1.50, 12.01) h"
same,"Tmax, Median (min, max)","[12]; atorvastatin 20 mg single oral dose alone (day 1), listed as p‐hydroxy‐atorvastatin",approximately 10 h
same,"AUCinf, Adjusted Gmean",[12]; [18],5.92 ng x h/mL
same,"AUClast, Adjusted Gmean",[12]; [18],2.89 ng x h/mL
same,"Cmax, Adjusted Gmean",[12]; [18],0.156 ng/mL
same,Time post-dose at which mean Cmax was observed (mean concentration-time profile),[12]; [19],10 h
same,AUCinf Gmean ratio,[12],0.74
same,AUClast Gmean ratio,[12],0.98
same,Cmax Gmean ratio,[12],0.98
same,"Effect of asciminib on Cmax, AUClast and AUCinf (in words)",[12],did not affect; also recorded: negligible
same,Time post-dose at which mean Cmax was observed (mean concentration-time profile),[12]; atorvastatin alone,10 h
same,"AUCinf, Adjusted Gmean",[12]; atorvastatin alone,8.04 ng x h/mL
same,"AUClast, Adjusted Gmean",[12]; atorvastatin alone,2.96 ng x h/mL
same,"Cmax, Adjusted Gmean",[12]; atorvastatin alone,0.160 ng/mL
coproporphyrin‐1 [CP‐1],Increase in Cmax,[13],5.7 fold
same,AUC0‐24 Gmean ratio,[14]; atorvastatin + asciminib/atorvastatin,1.02
same,Effect of asciminib on CP‐1 plasma concentrations (in words),[14]; steady-state asciminib 80 mg QD,not affected; also recorded: remained unaffected
same,"AUC0‐24, Adjusted Gmean",[14]; treatment 'Atorvastatin + asciminib' (steady-state asciminib),"12,500 pg x h/mL"
same,"AUC0‐24, Adjusted Gmean",[14]; treatment 'Atorvastatin' (without asciminib),"12,300 pg x h/mL"
same,"AUC0‐24, Gmean (GCV%)","[14]; with asciminib 80 mg QD, day 8, plasma","12,600 pg x h/mL"
same,"AUC0‐24, Gmean (GCV%)","[14]; without asciminib, day 4, plasma","12,300 pg x h/mL"
